Laboratory results: JP2011219500A, “ムスカリンレセプターアンタゴニストとしての有用なビフェニル化合物” (Theravance Inc, priority 2011, dated 2011)
Read-outs that look alike come from different tables or passages of the source.

Assays:
[1] = molecular target: T1, M3 muscarinic receptor subtype (M3ムスカリン性レセプターサブタイプ) (Homo sapiens, UniProt P20309); assay: Assay 1: radioligand binding assay ([3H]-NMS displacement)
T1 construct: expressed in transfected cells; membrane preparation

[2] = system: ACh-induced bronchoconstriction (ACh誘導性気管支収縮); assay: Assay 3: duration of bronchoprotection in guinea pig model of acetylcholine-induced bronchoconstriction; assay type: in vivo; conditions: inhalation, 1.5 h post-dose
hM3 receptor (hM3レセプター) = molecular target: T2, hM3 receptor (hM3レセプター) (Homo sapiens, UniProt P20309); assay: Assay 2C: blockade of agonist-mediated calcium release via FLIPR assay; assay type: cell-based
T2 construct: expressed in transfected cells
T2 sequence (P20309 whole entry): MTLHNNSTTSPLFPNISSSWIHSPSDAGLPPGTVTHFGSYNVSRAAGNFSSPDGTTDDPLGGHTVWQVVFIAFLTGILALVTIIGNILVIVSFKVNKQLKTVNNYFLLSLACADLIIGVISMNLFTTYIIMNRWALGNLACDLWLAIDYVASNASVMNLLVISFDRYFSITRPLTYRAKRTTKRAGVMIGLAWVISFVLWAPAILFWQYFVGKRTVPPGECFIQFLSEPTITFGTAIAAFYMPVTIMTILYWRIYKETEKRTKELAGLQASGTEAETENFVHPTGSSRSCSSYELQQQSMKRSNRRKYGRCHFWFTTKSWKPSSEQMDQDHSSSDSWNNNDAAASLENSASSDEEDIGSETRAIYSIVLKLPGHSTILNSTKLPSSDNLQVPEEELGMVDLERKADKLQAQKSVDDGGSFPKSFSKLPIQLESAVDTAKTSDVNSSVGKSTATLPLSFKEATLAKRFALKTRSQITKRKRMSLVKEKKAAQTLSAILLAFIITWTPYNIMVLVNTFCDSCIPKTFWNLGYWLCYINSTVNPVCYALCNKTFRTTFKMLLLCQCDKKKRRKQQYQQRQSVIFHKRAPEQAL

T1 sequence (P20309 whole entry): as above

SMILES | Ki [1] [nM] | PD2(50) [2] [µg/mL] | Ki (hM3 receptor (hM3レセプター)) [nM] | Ki ([1]; M3 subtype, [3H]-NMS displacement, CHO cell membranes, printed as less than about, read-out: Ki) [nM]
CN(CCN1CCC(OC(=O)Nc2ccccc2-c2ccccc2)CC1)C(=O)c1ccc(CN2CCC(C(N)=O)CC2)cc1 [実施例1, ビフェニル−2−イルカルバミン酸 1−(2−{[4−(4−カルバモイルピペリジン−1−イルメチル)ベンゾイル]メチルアミノ}エチル)ピペリジン−4−イルエステル] | < 5 | < 200 | < 5 | 
CCN(CCN1CCC(OC(=O)Nc2ccccc2-c2ccccc2)CC1)C(=O)c1ccc(CN2CCC(C(N)=O)CC2)cc1 [実施例2, ビフェニル−2−イルカルバミン酸 1−(2−{[4−(4−カルバモイルピペリジン−1−イルメチル)−ベンゾイル]エチルアミノ}エチル)ピペリジン−4−イルエステル] |  |  |  | < 5
